Results on one compound are retold here after publication PMC9145754, “Novel Soloxolone Amides as Potent Anti-Glioblastoma Candidates: Design, Synthesis, In Silico Analysis and Biological Activities In Vitro and In Vivo” (Pharmaceuticals, 2022).

Data set [1] is described as follows: Toxicity assessment (body weight, organ indexes). Type of data set: in vivo, Balb/C nude mice. As to the method:
(seven injections were performed in total) and brain tissue was collected 48 h after the last injection of 12 followed by a high-performance liquid chromatography–tandem mass spectrometry (HPLC–MS/MS) analysis of the obtained samples (Figure 3D). This treatment regimen was chosen due to its common usage in the evaluation of antitumor activity of various low-molecular weight compounds in xenograft murine models. […] Before the HPLC–MS/MS analysis, chromatographic conditions and mass spectrometer parameters for detecting both semisynthetic triterpenoid 12 and the internal standard in the multiple reaction monitoring (MRM) mode were optimized. The optimized parameters are given in Supplementary Table S1.
During the experiment, the general status of the animals and body weight was monitored. At the end of the experiment, organs were collected and organ indexes were calculated as (organ weight/body weight) × 100%.

The subject of the next data set is U87 glioblastoma. Briefly: Subcutaneous U87 glioblastoma xenograft model. Type of data set: in vivo, Balb/C nude mice. On the procedure: Given the high antitumor potential of 12 with respect to glioblastoma cells observed in vitro, we further questioned whether the investigated triterpenoid suppresses the growth of glioblastoma in a murine model. To understand this, 12 was intraperitoneally injected as a solution in 10% Tween-80 at a dosage of 20 mg/kg into nude mice bearing subcutaneously implanted human U87 glioblastomas (the experimental setup is presented in Figure 8A). […] Analysis of tumor weights also confirmed the high antitumor activity of 12, which decreased this parameter by 2.1- and 3.4-fold compared to the untreated and vehicle-treated groups, respectively (Figure 8D).
A xenograft model of tumor progression was induced by subcutaneous (s.c.) injection of U87 glioblastoma cells (2 × 10^7 cells/mL) suspended in 0.1 mL of saline buffer with 0.05 mL of Matrigel® Matrix (Corning, NY, USA) into the left flank of Balb/C nude mice. On day 5 after tumor transplantation, the mice were divided into three groups (n = 6 per group): (1) mice without treatment (control); (2) mice that received intraperitoneal (i.p.) injections of 10% Tween-80 (vehicle); and (3) mice that received i.p. injections of 12 in 10% Tween-80 at a dose of 20 mg/kg. The treatment was carried out thrice per week. The total number of injections was seven. During the experiment, the tumor volumes were determined three times a week using caliper measurements and were calculated as V= (D × d^2)/2, where D is the longest diameter of the tumor node and d is the shortest diameter of the tumor node perpendicular to D. The mice were sacrificed on day 21 after tumor transplantation and the tumors and brains were collected for subsequent histological and pharmacological analysis.
For the histological study, the tumor specimens were fixed in 10% neutral-buffered formalin (BioVitrum, St. Petersburg, Russia), dehydrated in ascending ethanols and xylols and embedded in HISTOMIX paraffin (BioVitrum, St. Petersburg, Russia). The paraffin sections (5 μm) were sliced on a Microm HM 355S microtome (Thermo Fisher Scientific, Waltham, MA, USA) and stained with hematoxylin and eosin. Extracellular matrix deposition was determined using Masson’s trichrome staining.
For the immunohistochemical study, the tumor sections (3–4 μm) were deparaffinized and rehydrated. Antigen retrieval was carried out after exposure in a microwave oven at 700 W. The samples were incubated with anti-Ki-67 (ab16667, Abcam, Boston, MA, USA), anti-α-SMA (ab5694, Abcam, USA) or anti-CD31 (ab182981, Abcam, USA) primary antibodies according to the manufacturer’s protocol. Then, the sections were incubated with secondary horseradish peroxidase (HPR)-conjugated antibodies, exposed to the 3,3′-diaminobenzidine (DAB) substrate (Rabbit Specific HRP/DAB (ABC) Detection IHC Kit, ab 64261, Abcam, USA) and stained with Mayer’s hematoxylin.
Morphometric analysis of tumor sections included evaluation of the numerical density (Nv) of mitoses and Ki-67-positive cells in a square unit of tumor tissue—3.2 × 10^6 μm^2 in this case. At least ten random fields from the tumor specimens of six mice in each group (60 testing fields in total) were studied.

In the next data set the test system is U87 cells. In words: Mitochondrial membrane potential/apoptosis, MitoTracker Red and Annexin V. Type of data set: cell-based, human. To be noted: U87, 12 at 4 µM, control 5.7%. On the procedure:
In order to doublecheck the ΔψM-targeted effect of 12 and to assess the correlation between dissipation of ΔψM and induction of apoptosis in triterpenoid-treated glioblastoma cells, U87 cells were incubated with 12 at 4 µM for 6–24 h followed by their staining with a mix of MitoTracker Red, a fluorescent dye accumulated within mitochondria depending on their ΔψM, and fluorophore-conjugated annexin V, used to visualize apoptotic cells.
[…] cells plated in 6-well plates were treated with 12 at 4 μM for 6, 18 and 24 h and stained using a Mitochondrial Membrane Potential/Annexin V Apoptsis Kit (Molecular Probes, USA) according to the manufacturer’s instructions. Briefly, harvested cells were incubated in Annexin-binding buffer containing MitoTracker Red at 40 nM for 30 min under standard conditions. After that, the cells were washed with PBS, resuspended in Annexin-binding buffer containing 5 µL of Annexin V-Alexa Fluor 488 and incubated at room temperature for 15 min. After the incubation time, the cells were analyzed by flow cytometry. For each sample, 10,000 events were acquired.

The test system of another data set is glioblastoma cells. Briefly: Cell survival at non-toxic concentrations. Type of data set: cell-based. To be noted: 12 at 25–500 nM (non-toxic concentrations). As to the method: To evaluate the antitumor potential of 12 more comprehensively, its effects at non-toxic concentrations (25–500 nM; cell survival of ≥90%) on a range of metastatic-related processes in glioblastoma cells were studied. Firstly, we investigated the inhibitory activity of 12 on the clonogenic capacity of tumor cells in vitro, which reflects their ability to form colonies from single cells which characterizes the stemness of tumor cells and plays a crucial role in metastasis.

Setting [2] is: 20 mg/kg i.p., seven injections.
Setting [3] is: 20 mg/kg i.p., seven injections, day 21.

Regarding `CC1(C)C(=O)C(C#N)=C[C@]2(C)C3=CC(=O)[C@@H]4[C@@H]5C[C@@](C)(C(=O)NCCc6c[nH]c7ccccc67)CC[C@]5(C)CC[C@@]4(C)[C@]3(C)CC[C@@H]12` [compound 12], the “organ indexes in experimental and control groups” value in data set [1] (U87 glioblastoma-bearing mice, 20 mg/kg i.p.) is “did not reveal significant differences”. For the same compound, the “mouse body weight compared to untreated mice” value in data set [1] (nude mice, 50 mg/kg i.p., thrice a week for two weeks) is “did not reveal significant changes”. Moreover, in the data set with U87 glioblastoma (setting [2]), the “decrease in tumor weight compared to the untreated group” value is listed as 2.1 fold and the “decrease in tumor weight compared to the vehicle-treated group” value came out at 3.4 fold. For the same compound, in the data set on U87 glioblastoma (setting [3]), the “decrease in tumor volume compared to the control” value was found to be 3 fold and the “decrease in tumor volume compared to the vehicle-treated group” value was found to be 4.4 fold. In the data set with U87 glioblastoma (20 mg/kg i.p., tumor tissue), the “decrease in numerical density of Ki-67-positive cells compared to the untreated control group” value is 3.5 fold, the “decrease in numerical density of Ki-67-positive cells compared with vehicle-treated animals” value worked out at 2.4 fold, the “decrease in numerical density of mitotic cells (Nv) compared to the untreated control group” value is listed as 3.4 fold and the “decrease in numerical density of mitotic cells (Nv) compared with vehicle-treated animals” value is given as 4 fold. Also, the “collagen fiber content in tumor tissue” value in the data set on U87 glioblastoma (Masson's trichrome, versus untreated and vehicle-treated mice) is listed as “decreased the collagen fiber content”. Also, in the data set on U87 glioblastoma (immunohistochemistry, versus control and vehicle-treated mice), the “expression of CD31 and α-SMA in tumor tissue” value is “increased the expression of both CD31 and α-SMA”. Further, the “percentage of apoptotic cells with dissipated ΔψM” value (shortened to “percentage … with dissipated ΔψM”) in the data set with U87 cells (6 h) amounted to 12.2%. Further, in the data set on U87 cells (18 h), the “percentage … with dissipated ΔψM” value is listed as 18.7%. The “percentage … with dissipated ΔψM” value with U87 cells (24 h) is 28%. In the data set on glioblastoma cells, the cell survival is at least 90%.
